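The compound was tested at five concentrations on cells cultured in 96-well plates, with a 48-hour exposure period. GI50 is the concentration that inhibits growth by half.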 Activity calls are given as the source filed them. No stated cut-off is given here; in the data, active = GI50 up to about 1.1 µM and inactive = higher.
What was measured:
Experiment in all cases: NCI anticancer screen, dose series, 48 h
SK-OV-3 = system: SK-OV-3
SK-MEL-5 = system: SK-MEL-5
SNB-75 = system: SNB-75
SF-268 = system: SF-268
HL-60 = system: HL-60
UO-31 = system: UO-31
SN12C = system: SN12C
HCT-15 = system: HCT-15
786-0 = system: 786-0
OVCAR-8 = system: OVCAR-8
SF-539 = system: SF-539
MDA-N = system: MDA-N
K562 = system: K562
EKVX = system: EKVX
LOX IMVI = system: LOX IMVI
PC-3 = system: PC-3
A498 = system: A498
HT-29 = system: HT-29
OVCAR-3 = system: OVCAR-3
SW-620 = system: SW-620
CAKI-1 = system: CAKI-1
HCT-116 = system: HCT-116
HOP-92 = system: HOP-92
CCRF-CEM = system: CCRF-CEM
SF-295 = system: SF-295
M14 = system: M14
SR = system: SR
MDA-MB-435 = system: MDA-MB-435
DU-145 = system: DU-145
BT-549 = system: BT-549
SK-MEL-2 = system: SK-MEL-2
KM12 = system: KM12
ACHN = system: ACHN
HOP-62 = system: HOP-62
NCI-H460 = system: NCI-H460
Malme-3M = system: Malme-3M
OVCAR-5 = system: OVCAR-5
UACC-257 = system: UACC-257
NCI-H522 = system: NCI-H522
UACC-62 = system: UACC-62
SK-MEL-28 = system: SK-MEL-28
T47D = system: T47D
MOLT-4 = system: MOLT-4
COLO 205 = system: COLO 205
IGROV-1 = system: IGROV-1
SNB-19 = system: SNB-19
Hs-578T = system: Hs-578T
A549 = system: A549
MCF7 = system: MCF7
NCI-H226 = system: NCI-H226
NCI/ADR-RES = system: NCI/ADR-RES
HCC 2998 = system: HCC 2998
NCI-H23 = system: NCI-H23
U-251 = system: U-251
OVCAR-4 = system: OVCAR-4
RXF 393 = system: RXF 393
MDA-MB-231 = system: MDA-MB-231
TK-10 = system: TK-10
RPMI-8226 = system: RPMI-8226

What does the source list for `CSc1ccc(/C=C2\N=C(c3ccccc3)N(NC(=O)c3c(Cl)c(Cl)c(Cl)c(Cl)c3-c3nc4ccccc4[nH]3)C2=O)cc1`?
GI50 (SK-OV-3): 5.48 µM (inactive); GI50 (SK-MEL-5): 21.7 µM (inactive); GI50 (SNB-75): 8.3 µM (inactive); GI50 (SF-268): 36.9 µM (inactive); GI50 (HL-60): 23.7 µM (inactive); GI50 (UO-31): 27.4 µM (inactive); GI50 (SN12C): 31 µM (inactive); GI50 (HCT-15): 15.1 µM; GI50 (786-0): 36 µM (inactive); GI50 (OVCAR-8): 37.8 µM (inactive); GI50 (SF-539): 33 µM (inactive); GI50 (MDA-N): 6.87 µM (inactive); GI50 (K562): 5.5 µM (inactive); GI50 (EKVX): 25.5 µM (inactive); GI50 (LOX IMVI): 30.9 µM (inactive); GI50 (PC-3): 36.6 µM (inactive); GI50 (A498): 30.8 µM (inactive); GI50 (HT-29): 36.2 µM (inactive); GI50 (OVCAR-3): 26.6 µM (inactive); GI50 (SW-620): 29.9 µM (inactive); GI50 (CAKI-1): 21.7 µM (inactive); GI50 (HCT-116): 25.2 µM (inactive); GI50 (HOP-92): 17.5 µM (inactive); GI50 (CCRF-CEM): 25.9 µM (inactive); GI50 (SF-295): 4.49 µM (inactive); GI50 (M14): 29.6 µM (inactive); GI50 (SR): 2.22 µM (inactive); GI50 (MDA-MB-435): 3.27 µM (inactive); GI50 (DU-145): 28.4 µM (inactive); GI50 (BT-549): 25.3 µM (inactive); GI50 (SK-MEL-2): 34.9 µM (inactive); GI50 (KM12): 6.84 µM (inactive); GI50 (ACHN): 28.8 µM (inactive); GI50 (HOP-62): 4.11 µM (inactive); GI50 (NCI-H460): 4.43 µM (inactive); GI50 (Malme-3M): 30.1 µM (inactive); GI50 (OVCAR-5): 81.7 µM (inactive); GI50 (UACC-257): 28.4 µM (inactive); GI50 (NCI-H522): 28.4 µM (inactive); GI50 (UACC-62): 19.2 µM (inactive); GI50 (SK-MEL-28): 30.8 µM (inactive); GI50 (T47D): 2.03 µM (inactive); GI50 (MOLT-4): 20.7 µM (inactive); GI50 (COLO 205): 22.4 µM (inactive); GI50 (IGROV-1): 1.79 µM (inactive); GI50 (SNB-19): 48.5 µM (inactive); GI50 (Hs-578T): 34.8 µM (inactive); GI50 (A549): 30.1 µM (inactive); GI50 (MCF7): 19.5 µM (inactive); GI50 (NCI-H226): 14.2 µM (inactive); GI50 (NCI/ADR-RES): 25.1 µM (inactive); GI50 (HCC 2998): 9.59 µM (inactive); GI50 (NCI-H23): 24.7 µM (inactive)

Which results are given for `O=C1C(=C/C=C2/SC(c3ccccc3)(c3ccccc3)c3ccccc32)C(=O)c2ccccc21`?
GI50 (U-251): > 100 µM (inactive); GI50 (SK-OV-3): > 100 µM (inactive); GI50 (SK-MEL-5): > 100 µM (inactive); GI50 (SNB-75): > 100 µM (inactive); GI50 (SF-268): > 100 µM (inactive); GI50 (UO-31): > 100 µM (inactive); GI50 (SN12C): > 100 µM (inactive); GI50 (HCT-15): > 100 µM; GI50 (786-0): > 100 µM (inactive); GI50 (OVCAR-8): > 100 µM (inactive); GI50 (OVCAR-4): > 100 µM (inactive); GI50 (SF-539): > 100 µM (inactive); GI50 (MDA-N): > 100 µM (inactive); GI50 (K562): > 100 µM (inactive); GI50 (EKVX): > 100 µM (inactive); GI50 (LOX IMVI): > 100 µM (inactive); GI50 (PC-3): 80.7 µM (inactive); GI50 (A498): > 100 µM (inactive); GI50 (HT-29): > 100 µM (inactive); GI50 (OVCAR-3): > 100 µM (inactive); GI50 (SW-620): > 100 µM (inactive); GI50 (CAKI-1): > 100 µM (inactive); GI50 (HCT-116): > 100 µM (inactive); GI50 (HOP-92): > 100 µM (inactive); GI50 (SF-295): > 100 µM (inactive); GI50 (M14): > 100 µM (inactive); GI50 (MDA-MB-435): > 100 µM (inactive); GI50 (DU-145): > 100 µM (inactive); GI50 (BT-549): > 100 µM (inactive); GI50 (KM12): > 100 µM (inactive); GI50 (ACHN): > 100 µM (inactive); GI50 (HOP-62): > 100 µM (inactive); GI50 (NCI-H460): > 100 µM (inactive); GI50 (RXF 393): > 100 µM (inactive); GI50 (Malme-3M): > 100 µM (inactive); GI50 (OVCAR-5): > 100 µM (inactive); GI50 (UACC-257): > 100 µM (inactive); GI50 (NCI-H522): > 100 µM (inactive); GI50 (UACC-62): > 100 µM (inactive); GI50 (SK-MEL-28): > 100 µM (inactive); GI50 (MOLT-4): > 100 µM (inactive); GI50 (COLO 205): > 100 µM (inactive); GI50 (IGROV-1): > 100 µM (inactive); GI50 (MDA-MB-231): > 100 µM (inactive); GI50 (SNB-19): > 100 µM (inactive); GI50 (Hs-578T): > 100 µM (inactive); GI50 (TK-10): > 100 µM (inactive); GI50 (A549): > 100 µM (inactive); GI50 (MCF7): > 100 µM (inactive); GI50 (NCI-H226): > 100 µM (inactive); GI50 (NCI/ADR-RES): > 100 µM (inactive); GI50 (HCC 2998): > 100 µM (inactive); GI50 (NCI-H23): > 100 µM (inactive); GI50 (RPMI-8226): > 100 µM (inactive)

From ChEMBL document CHEMBL1201862, “PubChem BioAssay data set” (2004)
